Assay [1] has as its target T1, PpnN (purine/pyrimidine nucleotide 5'-phosphate nucleosidase; EC 3.2.2.10) (Escherichia coli, UniProt P0ADR8, R341A/Y347A).
T1 construct: subunit 51,794 Da (wild type; RY 51,440 Da); wild type tetramer, RY variant monomer
T1 sequence (P0ADR8 1-454 R341A/Y347A): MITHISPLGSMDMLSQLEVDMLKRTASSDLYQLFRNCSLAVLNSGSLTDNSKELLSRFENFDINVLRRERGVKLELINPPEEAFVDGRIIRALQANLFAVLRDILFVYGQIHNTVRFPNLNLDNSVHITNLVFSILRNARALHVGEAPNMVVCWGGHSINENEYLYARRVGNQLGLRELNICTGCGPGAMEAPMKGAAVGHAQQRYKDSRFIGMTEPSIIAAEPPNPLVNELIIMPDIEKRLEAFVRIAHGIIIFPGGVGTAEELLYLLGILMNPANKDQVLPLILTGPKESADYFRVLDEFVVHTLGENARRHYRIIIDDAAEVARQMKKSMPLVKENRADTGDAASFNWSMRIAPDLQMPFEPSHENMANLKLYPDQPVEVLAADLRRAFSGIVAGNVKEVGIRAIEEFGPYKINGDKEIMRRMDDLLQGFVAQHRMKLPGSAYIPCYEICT
As to the kind of experiment: initial-rate inhibition, HPLC of uracil release, nonlinear fit. The note with it: substrate UMP; 50 mM HEPES pH 7.5, 40 °C; competitive; RY variant, monomer. It is filed as biochemical.

The target in assay [2] is T2, PpnN (purine/pyrimidine nucleotide 5'-phosphate nucleosidase; EC 3.2.2.10) (Escherichia coli, UniProt P0ADR8).
T2 construct: subunit 51,794 Da (wild type; RY 51,440 Da); wild type tetramer, RY variant monomer
T2 sequence (P0ADR8 1-454): T1 sequence (P0ADR8 1-454 R341A/Y347A) with A341R, A347Y
Described as above. Format: biochemical. The note with it: substrate UMP; 50 mM HEPES pH 7.5, 40 °C; competitive; wild type.

Structures are written as SMILES. Where a chain is given by its changes, count along the chain named.

As usually defined, the Ki is the dissociation constant of the complex between target and ligand, obtained from inhibition or displacement. In the case of `O=P(O)(O)OC[C@H]1OC(O)[C@H](O)[C@@H]1O` (stereo partly drawn) [D-ribose 5-phosphate], the Ki in assay [1] stood at 1200 ± 100 µM; in assay [2] it was 100 µM.
